What all share (assay type): cell-based
Data set [1] has as its system corticotroph tumor cell line AtT-20. In words: Proliferation assay (WST-1 assay). Conditions: 96 hours treatment, different doses, WST-1, vs vehicle = 100%. Here is the method: AtT-20 cells were treated for 96 hours with different doses of (A) 17-AAG, (B) silibinin, or (C) novobiocin.
Cell proliferation was measured with the WST-1 proliferation assay (Roche Applied Science). This assay measures the activity of the mitochondrial succinate dehydrogenase. After 4 days of treatment with different HSP90 inhibitors, the WST-1 reagent was added to AtT-20 cell cultures in 96-well plates to a final dilution of 1:10. The cells were incubated for 2 hours and then the absorbance of the reaction product was measured with an ELISA reader at 440 nm, following the manufacturer's instructions.

In data set [2] the test system is GR (glucocorticoid receptor) protein. In words: Western blot, induction of GR degradation. Conditions: AtT-20 cells. The method, then:
(§1) AtT-20 cells were treated with (A) 17-AAG, (B) silibinin, or (C) novobiocin. At the end of the treatment, the GR, Cdk1 and actin proteins were detected by Western blot.
(§2) AtT-20 cells in 6-well plates were treated with different HSP90 inhibitors for the times indicated in each experiment. At the end of the treatment, cell lysates were prepared in lysis buffer supplemented with protease and phosphatase inhibitor cocktail (Roche). Samples of the lysates were separated by PAGE and blotted onto membranes using standard western blot procedures with gels and buffers from Invitrogen. After blocking the membranes with 5% non-fat dry milk, primary antibodies against GR (H-300, Santa Cruz), Cdk1 (BD Transduction Laboratories), and actin (Cell Signalling) were added. Anti-mouse and anti-rabbit horseradish peroxidase-conjugated secondary antibodies were used to detect the primary antibodies. The detection was carried out using Lumilight (Roche) or ECL-Plus (Thermo Scientific).

The test system of a further data set is Cdk1. In words: Western blot, Cdk1 degradation. Conditions: AtT-20 cells. Here is the method: as §1, §2
Data set [3] has as its system GR (glucocorticoid receptor). In words: Evaluation of GR activity (MTV-Luc reporter). Conditions: AtT-20 cells, 72 hours, in combination with dexamethasone. The method, then:
AtT-20 cells were treated for 72 hours with different doses of (A) 17-AAG, (B) silibinin, or (C) novobiocin. At the end of the treatment, GR activity was measured by transfection of the reporter construct MTV-luc.
AtT-20 cells (3×10^5) were transfected for 3 hours with 1 μg of the MTV-Luc reporter plasmid in 6-well plates. Cell transfection was performed with SuperFect (Qiagen GmbH). After an overnight incubation in culture medium with 10% fetal calf serum, the cells were treated with different HSP90 inhibitors in combination with dexamethasone. Luciferase activity in cell lysates was measured with a Berthold luminometer after addition of luciferin and ATP. Transfection efficiency was determined using the Rous sarcoma virus-β-gal construct. Data are expressed as the ratio of luciferase activity to β-gal activity.

Another data set concerns AtT-20 cells. In words: Evaluation of ACTH secretion (RIA). Conditions: for ACTH secretion: 48 hours, plus dexamethasone 100 nM. The method, then: AtT-20 cells were treated for 48 hours with the glucocorticoid dexamethasone (100 nM) plus different doses of 17-AAG or silibinin, as indicated in the figure. At the end of the treatment, ACTH was measured by RIA.
AtT-20 cells were treated for 72 hours with 10 μM silibinin in combination with different doses of octreotide, as indicated in the figure.
AtT-20 cells were seeded in 96-well plates in cell culture medium containing dexamethasone to mimic the high glucocorticoid concentration in the blood of patients with Cushing's disease. At the end of the treatment, the cell culture supernatants were collected and frozen. ACTH secreted into the cell culture medium was measured by radio-immunoassay (RIA) in comparison with known amounts of ACTH standards diluted in the same medium. […] The bound and free fractions were separated by centrifugation with charcoal and the radioactivity was measured in a beta-counter.

In the next data set the test system is GH3 prolactinoma cells. In words: Evaluation of prolactin secretion (RIA). Conditions: 48 hours. Here is the method:
10,000 GH3 prolactinoma cells obtained from the American Type Culture Collection (Rockville, Md.) were seeded onto 96-well plates in DMEM with 10% fetal calf serum. After 24 hours the medium was changed and the attached cells were treated with different doses of the HSP90 inhibitors 17-AAG or silibinin, as indicated in FIG. 10. After 48 hours, culture supernatants were collected and the concentration of prolactin was measured by RIA.

Data set [4] has as its system GH3 somatotroph adenoma cells. In words: Evaluation of growth hormone secretion (RIA). Conditions: 48 hours. Here is the method: 10,000 GH3 somatotroph adenoma cells obtained from the American Type Culture Collection (Rockville, Md.) were seeded onto 96-well plates in DMEM with 10% fetal calf serum. After 24 hours the medium was changed and the attached cells were treated with different doses of the HSP90 inhibitors 17-AAG or silibinin, as indicated in the FIG. 11. After 48 hours, culture supernatants were collected and the concentration of growth hormone was measured by RIA.

The subject of a further data set is GH3 cells. In words: Cell-viability assay WST-1 (toxicity).
Setting [5] is: WST-1, growth hormone experiment (Example 07).
[6] abbreviates: WST-1, prolactin experiment (Example 06).

Turning to `C=CCNC1=C2C[C@@H](C)C[C@H](OC)[C@H](O)[C@@H](C)/C=C(\C)[C@H](OC(N)=O)[C@@H](OC)/C=C\C=C(/C)C(=O)NC(=CC1=O)C2=O` [17-AAG, 17-N-Allylamino-17-demethoxygeldanamycin], in data set [1], the “proliferation of AtT-20 cells” value is recorded as “strongly inhibit the proliferation”. Besides, the GR degradation result in data set [2] was “induces GR degradation”. Also, the Cdk1 degradation entry with Cdk1 is “induce degradation of Cdk1”. For the same compound, the “transcriptional activity of GR” value in data set [3] is listed as “inhibited this activity”. The ACTH secretion result in the data set with AtT-20 cells was “has no effect on ACTH secretion”. The prolactin secretion result in the data set with GH3 prolactinoma cells is reported as “minimally inhibited prolactin secretion only at a concentration of 1 μM”. Besides, in data set [4], the growth hormone secretion result is reported as “did not inhibit growth hormone secretion at any of the tested concentrations”. For the same compound, the “toxicity for GH3 cells” value with GH3 cells (setting [5]) and in the data set on GH3 cells (setting [6]) was “Higher concentrations of 17-AAG were toxic” in each case.

With `CO[C@@H]1[C@@H](OC(N)=O)[C@@H](O)[C@H](Oc2ccc3c(O)c(NC(=O)c4ccc(O)c(CC=C(C)C)c4)c(=O)oc3c2C)OC1(C)C` [novobiocin], the “proliferation of AtT-20 cells” value in data set [1] is “strongly inhibit the proliferation”. Besides, the GR degradation result in data set [2] was “did not produce this effect”. Moreover, in the data set on Cdk1, the Cdk1 degradation result was “induce degradation of Cdk1”. For the same compound, in data set [3], the “transcriptional activity of GR” value was “increased the transcriptional activity of GR”.

Take `COc1cc([C@H]2Oc3cc([C@H]4Oc5cc(O)cc(O)c5C(=O)[C@@H]4O)ccc3O[C@@H]2CO)ccc1O` [silibinin, (2R,3R)-3,5,7-trihydroxy-2-[(2R,3R)-3-(4-hydroxy-3-methoxyphenyl)-2-(hydroxymethyl)-2,3-dihydrobenzo[b][1,4]dioxin-6-yl]chroman-4-one]: in data set [1], the “proliferation of AtT-20 cells” value is reported as “strongly inhibit the proliferation”. Besides, the GR degradation entry in data set [2] is “did not produce this effect”. The Cdk1 degradation entry in the data set on Cdk1 is “induce degradation of Cdk1”. In addition, in data set [3], the “transcriptional activity of GR” value is listed as “increased the transcriptional activity of GR”. Moreover, in the data set on AtT-20 cells, the ACTH secretion entry is listed as “inhibits ACTH secretion”. Moreover, in the data set with AtT-20 cells (72 hours, 10 μM silibinin plus sub-optimal concentrations of octreotide), the “ACTH secretion in combination with octreotide” value is “increases the inhibition of ACTH secretion”. Moreover, the prolactin secretion entry with GH3 prolactinoma cells is given as “significantly inhibited the secretion of prolactin”. Moreover, the growth hormone secretion entry in data set [4] was “significantly inhibited the secretion of growth hormone”. In addition, the “toxicity for GH3 cells” value is reported as “no toxicity was observed, even at high concentrations” in the data set with GH3 cells (setting [5]) and “no toxicity was observed, even at high concentrations” in the data set on GH3 cells (setting [6]).

The values are drawn from patent US9877947B2, “C-terminal HSP90 inhibitors to treat pituitary adenomas” (priority 2013, dated 2018).
